The results in this text go back to PubChem BioAssay (NCI).

Values joined by “and” are separate entries in the source; they are usually repeats but may differ in a detail not shown here. Equal entries are not always repeated.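 96-well plates; 48 h exposure; 5 concentrations. Endpoints by linear interpolation between flanking doses. Not reached: highest tested concentration assigned. The concentration for 50% growth inhibition is given as GI50. TGI marks complete inhibition of growth.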 Where only a bound is given, the exact number is not on record here.

Holding throughout (assay): inhibition of tumour cell growth, NCI panel, 48 h
Assay [1] deals with U251 CNS.
The subject of assay [2] is IGROV1 ovarian.
In assay [3] the test system is MDA-MB-435.
Assay [4] deals with BT-549 breast.
Assay [5] concerns SF-539 CNS.
Assay [6] has as its system HCT-116 colon.
Assay [7] deals with HL-60(TB) leukemia.
In assay [8] the test system is TK-10 renal.
Assay [9] concerns K-562 leukemia.
In assay [10] the test system is OVCAR-4 ovarian.

On to `c1ccc2cc(OCC3CO3)c(OCC3CO3)cc2c1` (centres undefined), for which the TGI in assay [1] is 13.9 µM; in assay [2], 11.1 µM; in assay [3], 21.7 µM; in assay [4] it was 5.57 µM; in assay [5] it was 9.13 µM; in assay [6] it was 3.11 µM. For the same compound, the TGI in assay [7] came out at 45.3 µM; in [8], 49.2 µM; in assay [9] it was 25.1 µM.
On to `Oc1ccc(Br)cc1/C=N/NC(=S)NC12CC3CC(CC(C3)C1)C2`, for which the GI50 in assay [10] is 1.25 µM; in assay [1] it was 1.32 µM; in [2] it was 1.81 µM; in [3], 1.98 µM; in assay [4] it was 4.36 µM; in assay [5], 3.19 µM. Besides, the GI50 in assay [6] is 1.57 µM; in [7] it was 2.52 µM; in assay [9] it was 1.87 µM. The TGI in assay [10] turned out to be 4.09 µM; in assay [1], 2.71 µM; in assay [2], 5.89 µM; in assay [3], 5.45 µM; in assay [4] it was 15.7 µM; in assay [5], 11.3 µM. Moreover, the TGI is 4.57 µM in assay [6], 6.5 µM in [7] and 5.3 µM in assay [9].
For `COc1ccc2[nH]c(-c3cccc(N(C)C)c3)cc(=O)c2c1`, the TGI in assay [10] is above 100 µM; in [2], above 100 µM; in [3], 0.213 µM and 0.202 µM; in assay [7] it was 0.592 µM and 0.569 µM; in assay [8], above 100 µM; in assay [9], 17.3 µM. Besides, the GI50 in assay [1] is 0.463 µM; in assay [3], 0.0444 µM; in assay [5] it was 0.391 µM; in assay [6], 0.56 µM; in assay [7], 0.231 µM; in assay [8] it was 19.8 µM. Further, the GI50 in [9] is 0.321 µM.
On to `COc1cc(/C=C2\CC3C4CC=C5C[C@@H](N6CCCC6)CC[C@]5(C)C4CC[C@]3(C)[C@H]2OC(C)=O)ccc1OCCN1CCCCC1` (some centres undefined), for which the GI50 in assay [10] is 3.03 µM; in [1], 1.55 µM; in [2] it was 1.59 µM; in assay [3], 1.83 µM; in assay [4], 2.25 µM; in assay [5], 1.66 µM. Moreover, the figures for the GI50 in [6], in [8] and in [9] were 0.275 µM, 0.211 µM and 0.105 µM, respectively. Further, the TGI in assay [10] turned out to be 8.98 µM; in assay [1], 3.02 µM; in assay [2], 3.23 µM; in assay [3], 3.44 µM; in [4] it was 4.13 µM; in assay [5], 3.16 µM. Also, the TGI in [6] is 0.85 µM; in [8], 1.49 µM; in assay [9], 0.71 µM.
For the compound `O=C1NC(=O)C2(CCC(O)C2)c2cc[n+]([O-])cc21` (centres undefined), the TGI in assay [10], in [1], in assay [2], in [3], in [4] and in assay [5] was above 100 µM each time. Also, the TGI in assay [6], in assay [8] and in [9] was above 100 µM in each case.
`COc1ccc(NC(=O)Nc2ccc(Nc3nc(C)cc(Nc4ccc(C)cc4)n3)cc2)cc1`: the GI50 in assay [10] was 1.16 µM; in assay [1], 1.72 µM; in assay [2], 1.71 µM; in assay [4], 1.88 µM; in assay [5], 1.7 µM; in [8] it was 1.68 µM. For the same compound, the TGI was 2.55 µM in [10]; 3.21 µM in assay [1]; 3.28 µM in assay [2]; 4.24 µM in assay [4]; 3.31 µM in assay [5]; 3.06 µM in assay [8].
On to `COc1cc(OC)c(OC)cc1/C=C1\C=Cc2ccccc21`, for which the TGI is above 100 µM in assay [1]; above 100 µM in assay [2]; 14.5 µM in [3]; 35.8 µM in assay [5]; 21.9 µM in assay [6]; 35.2 µM in assay [7]. The values for the TGI in [8] and in assay [9] were 80 µM and above 100 µM, respectively.
Take `Cc1[nH]nc2c1N=C(c1ccccc1F)c1cc(C#N)ccc1N2`: the GI50 in [10] was 3.02 µM; in assay [1], 0.215 µM; in [2], 5.4 µM; in assay [4], 2.65 µM; in [5], 0.134 µM; in [6], 0.143 µM. The GI50 in [7] was 0.0969 µM; in [8], 1.91 µM; in [9], 0.11 µM. Moreover, the TGI in assay [10] stood at 8.01 µM; in assay [1], 4.64 µM; in assay [2], 16.2 µM; in assay [4] it was 12.1 µM; in assay [5], 4.93 µM; in assay [6], 6.91 µM. Also, the TGI was 8.71 µM in [7], 8.73 µM in assay [8] and above 25 µM in assay [9].
As to `Cc1ccc(C2SCc3nc4ccc(C(=O)c5ccccc5)cc4n32)cc1` (centres undefined), the GI50 in assay [10] is 34 µM; in [1], 5.09 µM; in [2] it was 13.6 µM; in [3], 2.83 µM; in [4], 4.8 µM; in [5] it was 13.4 µM. In addition, the GI50 in assay [6] is 3.99 µM; in assay [8] it was 13.9 µM; in assay [9], 3.74 µM. In addition, the TGI was above 100 µM in assay [10]; above 83.7 µM in assay [1]; above 69 µM in [2]; 11.4 µM in assay [3]; 18.4 µM in assay [4]; 32.5 µM in assay [5]. The TGI is 41.3 µM in assay [6], 35.1 µM in assay [8] and above 100 µM in [9].
Turning to `C#CCOc1ccc2ncnc(Nc3ccc(NC(=O)CCl)cc3)c2c1`, the GI50 was 11.9 µM in assay [10]; 2.08 µM in [1]; 3.15 µM in [2]; 2.67 µM in assay [3]; 3.81 µM in [4]; 2.89 µM in assay [5]. Besides, the GI50 in assay [6] is 3.68 µM; in assay [7] it was 5.91 µM; in [8], 13.7 µM. Further, the TGI is 39.2 µM in assay [10]; 5.99 µM in assay [1]; 10.9 µM in assay [2]; above 100 µM in assay [3]; 16.6 µM in assay [4]; 10.6 µM in assay [5]. The values for the TGI in assay [6], in [7] and in assay [8] were 14.9 µM, 25.2 µM and 42.7 µM, respectively.
`CCCCN(CCCC)CC(C)(C)C(O)c1ccc(OC)c2ccccc12` (centres undefined): the GI50 in assay [10] was 0.385 µM; in [1], 3.47 µM; in assay [2] it was 1.69 µM; in assay [3], 5.05 µM; in assay [4], 12.1 µM; in assay [6] it was 1.08 µM. Also, the GI50 in [7] is 2.98 µM; in assay [8], 8.02 µM; in assay [9], 2.51 µM. Further, the TGI is 23.5 µM in assay [10]; 13.4 µM in assay [1]; 14.1 µM in assay [2]; 28.6 µM in [3]; 30.3 µM in [4]; 10.8 µM in assay [6]. The results for the TGI in [7], in [8] and in assay [9] were 15.8 µM, 24.3 µM and 13.6 µM, respectively.
On to `Cc1ccc2[nH]c(C(=O)NN3C(=O)CSC34CCCC(C)C4)c(-c3ccccc3)c2c1` (centres undefined), for which the GI50 in assay [10] was 18.4 µM; in assay [1] it was 17.3 µM; in assay [2], 0.0485 µM; in assay [3] it was 18 µM; in assay [4] it was 19.5 µM; in assay [5] it was 21 µM. Besides, the figures for the GI50 in [6], in assay [8] and in assay [9] were 14.6 µM, 17.2 µM and 12.7 µM, respectively. Also, the TGI in assay [10] is 40.2 µM; in [1] it was 33.6 µM; in [2], 12 µM; in [3], 34.8 µM; in assay [4], 36.5 µM; in [5] it was 39.4 µM. Besides, the TGI in assay [6] was 31 µM; in [8], 34.7 µM; in assay [9] it was 39.2 µM.
Regarding `CN1CCN(Cc2ccc(NC(=O)c3[nH]ncc3Nc3ncnc4sccc34)cc2)CC1`, the GI50 in [10] was 0.326 µM; in [1], 0.242 µM; in [2], 0.396 µM; in [3], 0.394 µM; in assay [4], 1.23 µM; in assay [5], 0.127 µM. Moreover, the GI50 in assay [7] is 0.334 µM; in [8] it was 2.16 µM; in assay [9], 0.235 µM. The TGI in assay [10] was 3.92 µM; in assay [1], above 100 µM; in [2], above 100 µM; in assay [3], above 100 µM; in assay [4] it was 5.56 µM; in assay [5] it was 1.56 µM. Also, the TGI in assay [7] was 1.07 µM; in assay [8], 19.6 µM; in assay [9], above 100 µM.
As for `COc1ccc2c(c1OC)-c1c(c3ccc([N+](=O)[O-])cc3c(=O)n1CCCN=[N+]=[N-])C2=O`, the GI50 is above 100 µM in assay [10]; 6.2 µM in assay [1]; 1.02 µM in assay [2]; 72.4 µM in assay [3]; above 100 µM in assay [4]; 5.23 µM in assay [5]. Besides, the GI50 in assay [6] is 2.93 µM; in assay [8] it was above 100 µM; in assay [9], 23.3 µM. For the same compound, the TGI in [10] was above 100 µM; in assay [1], above 100 µM; in [2], 23.9 µM; in [3] it was above 100 µM; in assay [4] it was above 100 µM; in [5], 40.3 µM. Also, the results for the TGI in [6], in assay [8] and in [9] were 38.2 µM, above 100 µM and above 100 µM, respectively.
As to `O=C(O)C(Br)C(Br)c1ccccc1[N+](=O)[O-]` (centres undefined), the TGI in assay [10], in assay [1], in assay [2], in assay [3], in assay [4] and in assay [5] was above 100 µM throughout. The TGI in [6], in assay [8] and in [9] was above 100 µM throughout.
For `CCOC(=O)CNC(=O)CCCn1c(=O)c2c3ccccc3n(C)c2n2nnc(-c3ccccc3)c12`, the GI50 in assay [10] was above 50 µM; in [1] it was 4.14 µM; in assay [2], 8.87 µM; in [3], above 50 µM; in assay [5], 4.3 µM; in [6] it was 9.04 µM. Also, the values for the GI50 in assay [7], in assay [8] and in assay [9] were 20.6 µM, 8.71 µM and 4.73 µM, respectively. Besides, the TGI was above 50 µM in assay [10]; 14.6 µM in assay [1]; 29.9 µM in assay [2]; above 50 µM in assay [3]; 11.6 µM in [5]; 27.3 µM in [6]. Moreover, the TGI in [7] is above 50 µM; in [8] it was 20.9 µM; in assay [9] it was above 50 µM.
`CCCCCCNC(=O)Oc1ccc(/C(=C(\C)c2ccccc2)c2ccc(OCCN3CCCCC3)cc2)cc1`: the GI50 was 3.04 µM in assay [10]; 1.81 µM in assay [1]; 3.01 µM in assay [2]; 1.84 µM in [3]; 2.38 µM in [4]; 1.75 µM in [5]. Moreover, the GI50 was 1.49 µM in assay [6], 7.85 µM in [8] and 1.7 µM in [9]. Also, the TGI in assay [10] was determined as 10.7 µM; in [1], 3.81 µM; in assay [2], 8.85 µM; in assay [3], 4.01 µM; in assay [4] it was 7.1 µM; in assay [5], 3.22 µM. The results for the TGI in [6], in assay [8] and in assay [9] were 2.89 µM, 21.4 µM and 4.96 µM, respectively.
As for `CCOC(=O)c1cc2cc(NC(=O)c3cc4cc([N+](=O)[O-])ccc4n3C)ccc2n1C`, the GI50 in assay [1] was 14.1 µM; in assay [2], above 100 µM; in assay [3] it was 60.9 µM; in assay [4], 11.6 µM; in assay [6], 14.6 µM; in assay [7], above 100 µM. For the same compound, the GI50 in assay [8] is 19.7 µM; in assay [9], 59.1 µM. Also, the TGI in [1] is 30.9 µM; in [2], above 100 µM; in assay [3] it was above 100 µM; in assay [4], 35.3 µM; in assay [6], 30.3 µM; in assay [7], above 100 µM. The TGI in assay [8] is 70.7 µM; in assay [9], above 100 µM.
